Measured values as given in patent US20240099295A1, “CELL TREATMENT AGENT” (AYA Inc., priority 2021, published 2024).

What was measured:
Format in all cases: cell-based
[1] = test system: Rat corneal epithelial cell; assay: Cell dormancy effect: cell cycle analysis by flow cytometry; conditions: serum-free cell culture solution, cultured 48 hours at 37° C.
Procedure: Sodium alginate (sodium alginate first grade reagent, available from FUJIFILM Wako Pure Chemical Corporation, viscosity of 1% aqueous solution is 120 mPa·s at 20° C.), DS (the same as in Experimental Example 1), or sodium heparin (the same as in Experimental Example 1) was used as an active ingredient in the cell treatment agent, and whether cell dormancy occurs or not by action of the active ingredient was examined by comparing the activities of cell division and proliferation which are the most general cell activities in the following manner.
The cell cycle was analyzed by flow cytometry according to the method described in known literature (Piotr Pozarowski and Zbigniew Darzynkiewicz, “Analysis of Cell Cycle by Flow Cytometry,” Methods in Molecular Biology, vol. 281: Checkpoint Controls and Cancer, Volume 2), and frequency of cell division and proliferation was compared between different active ingredients of the cell treatment agent. A specific method is as follows. Using a normal serum-free cell culture solution as a conditioning solution (comparison reference (a)), (b) a cell preservation solution in which sodium alginate (Na alginate) is added to the conditioning solution in a concentration of 2.5 mg/ml, (c) a cell preservation solution in which DS is added to the conditioning solution in a concentration of 0.1 mg/ml, and (d) a cell preservation solution in which heparin sodium (heparin Na) is added to the conditioning solution in a concentration of 50 units/ml, were prepared. To these cell preservation solutions, rat corneal epithelial cells were added at a cell concentration of 10^5 cells/ml and cultured for 48 hours under normal cell culture conditions (37° C., CO2 concentration of 5%, humidity of 100%). The number of cells in each culture was determined by cell cycle analysis using flow cytometry to determine the number of cells in each cell cycle, and the percentage of cells in the S phase, G2 phase, and M phase, which are considered as the periods of the cell division and proliferation process, was compared with the percentage of cells in the G0 phase and G1 phase, which are considered as other periods. The results are of N=4.

[2] = test system: Rat corneal epithelial cell; assay: Cell detaching and suspending effect under gentle shaking (Experimental Example 5); conditions: cell culture solution containing 10% FBS, 37° C.
Procedure: In the same manner as in Experimental Example 4, rat corneal epithelial cells were sufficiently adhered to the culture dish wall which is a scaffold.
To the culture solutions in the culture dish on which cultured cells obtained in the manner as described above had adhered, each active ingredient was added in a concentration shown in Table 14, or no active ingredient was added. Each culture dish was then placed on the base of a shaker (product name: Laboshaker Model BC-740, available from BIO CRAFT Corporation), the shaking intensity was set to the lowest level, and the shaking frequency was set to 4 times/min, and cells were cultured under normal cell culture conditions (37° C., CO2 concentration of 5%, humidity of 100%) for 24 hours while each culture dish was gently shaken. Then, detachment and suspension of cells after 24 hours of culturing was observed. For determination of detachment and suspension, whether cells were detached from the dish wall and suspended under shaking of the culture dish was observed, and the case where 90% or more of the cells were detached and suspended was determined as “detached and suspended”, and “detached and suspended” cells were marked with “∘” and “undetached and unsuspended” cells were marked with “x”. The results are of N=4.

[3] = test system: Chinese hamster fibroblast; assay: Cell protective effect: cell survival during preservation (trypan blue excretion test); conditions: Chinese hamster fibroblasts; same preservation experiments; values not given
Procedure: Using a normal serum-free cell culture solution without FBS or a Ringer's solution (Otsuka Pharmaceutical Co., Ltd., Lactec Injection, Japanese Pharmacopoeia, Sodium L-lactate Ringer's solution) as a conditioning solution for use, for example, in preservation and transportation of cells, sodium alginate (Na alginate) (Fuji Chemical Industry Co., Ltd. Snow Algin SSL, viscosity of 1% aqueous solution is 30 mPa·s at 20° C.) was added to the conditioning solution in the concentrations shown in Table 1 to prepare cell preservation solutions. To each cell preservation solution, the above-described cells were added at a concentration of 10^6 cells/ml to satisfy the conditions shown in Table 1, and the resultant solution was left to stand in a room at normal temperature (22° C.) for 24 hours, and then whether cells were alive or dead was determined, and rates of viable cells (average survival rate (%)) were calculated and compared. Cell viability was determined by the trypan blue excretion test that is the ordinary method of confirming cell viability. The excretion test was performed according to the method described in “Denizot F., et al., Rapid colorimetric assay for cell growth and survival. Modifications to the tetrazolium dye procedure giving improved sensitivity and reliability. J. Immunol. Methods, 89, 271-277 (1986)”. The results are of N=4.
The average survival rate (%) was determined in the same manner as in Experimental Example (1-1-1) except that the preservation conditions were changed to leaving still for 72 hours in a refrigerator at a set temperature of 4° C. The results are of N=4.

Substance | Percentages of cells of each cell cycle: G0 phase + G1 phase ([1]; Heparin Na 50 units/mL) [%] | Percentages of cells of each cell cycle: S phase + G2 phase + M phase ([1]; Heparin Na 50 units/mL) [%] | Detachment at lapse of 24 hours after addition of active ingredient ([2]; Heparin Na 100 units/mL) | Effect of improving cell viability (cell protective effect) [3] | Percentages of cells of each cell cycle: G0 phase + G1 phase ([1]; DS 0.1 mg/mL) [%] | Percentages of cells of each cell cycle: S phase + G2 phase + M phase ([1]; DS 0.1 mg/mL) [%] | Detachment at lapse of 24 hours after addition of active ingredient ([2]; DS 0.5 mg/mL)
heparin sodium [Heparin Na, reference compound] | 89.7 | 7.68 | ∘ (“detached and suspended” cells were marked with “∘”) | the cell protective effect was also observed | – | – | –
dextran sulfate [DS] | – | – | – | the cell protective effect was also observed | 92.4 | 5.77 | ∘ (“detached and suspended” cells were marked with “∘”)
